Patent US6706663B2, “Herbicidal 3-heterocyclic substituted benzisothiazole and benzisoxazole compounds” (Wyeth, priority 2000, dated 2004)

Experiments:
[1] = tested on: IPOHE (Ipomoea hederacea); test: Postemergence herbicidal evaluation; assay type: in vivo, (L.) Jacq.
In short: (§1)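 Visual 0–9 injury scores versus control plants, covering stand, vigour, malformation, size, chlorosis and general appearance, taken four to five weeks post-spray and averaged over replicate tests. Plants were sprayed at roughly two weeks old and held on greenhouse benches.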

[2] = tested on: SETVI (Setaria viridis); test: Postemergence herbicidal evaluation; assay type: in vivo, (L.) Beau
In short: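 Seedlings grown about two weeks were sprayed with compound in 50/50 acetone/water containing 0.5% TWEEN 20, at about 0.0040 to 1.000 kg/ha via nozzle at 40 psi. Plants were kept under greenhouse conditions and visually rated on a 0-9 scale versus control four to five weeks after treatment; replicate tests averaged.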

[3] = tested on: TRZAWR (Wheat, Winter, cv Riband); test: Postemergence herbicidal evaluation; assay type: in vivo, Triticum aestivum
In short: as §1

[4] = tested on: ECHCG (Echinochloa crus-galli); test: Preemergence herbicidal evaluation; assay type: in vivo, (L.) Beau; conditions: preemergence, rated 4-5 weeks after treatment
In short: (§2)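 Rating 0–9, visual, vs control; 4–5 wk after spraying seeded cups with compound in aq. acetone; conventional greenhouse care.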

[5] = tested on: SETVI (Setaria viridis); test: Preemergence herbicidal evaluation; assay type: in vivo, (L.) Beau; conditions: preemergence, rated 4-5 weeks after treatment
In short: as §2

[6] = tested on: GLXMAW (Soybean, Williams); test: Preemergence herbicidal evaluation; assay type: in vivo, Glycine max, (L.) Merr. cv Williams; conditions: preemergence, rated 4-5 weeks after treatment
[7] = tested on: ZEAMX (Corn, Field); test: Preemergence herbicidal evaluation; assay type: in vivo, Zea mays, L.; conditions: preemergence, rated 4-5 weeks after treatment
[8] = tested on: ECHORC (Echinochloa oryzoides); test: Flooded paddy, preemergence weed control; assay type: in vivo, Echinochloa oryzoides (Ard.) Fritsch.; conditions: rated 3-4 weeks after treatment, 0-9 rating scale
In short: (§3)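 Scoring used a 0-9 visual scale relative to control. Before that, seeds or propagules were planted shallowly in silt loam and flooded to 1.5–3 cm, a depth maintained throughout, with greenhouse care during the test.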

[9] = tested on: CYPIR (Cyperus iria); test: Flooded paddy, preemergence weed control; assay type: in vivo; conditions: rated 3-4 weeks after treatment, 0-9 rating scale
In short: as §3

[10] = tested on: MOOVA (Monochoria vaginalis); test: Flooded paddy, preemergence weed control; assay type: in vivo, Presl.; conditions: rated 3-4 weeks after treatment, 0-9 rating scale
In short: as §3

[11] = tested on: ECHORC (Echinochloa oryzoides); test: Flooded paddy, postemergence weed control; assay type: in vivo, Echinochloa oryzoides (Ard.) Fritsch.; conditions: postemergence weeds, rated 3-4 weeks after treatment
In short: (§4)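 Herbicidal effect was judged visually against a control on a 0-9 scale covering stand, vigor, malformation, size and chlorosis, three to four weeks after compound was applied into paddy flood water at about 0.0320 to 0.2500 kg/ha.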

[12] = tested on: CYPIR (Cyperus iria); test: Flooded paddy, postemergence weed control; assay type: in vivo; conditions: postemergence weeds, rated 3-4 weeks after treatment
Text: Results of herbicide evaluation are expressed on a rating scale (0-9). The scale is based upon a visual observation of plant stand, vigor, malformation, size, chlorosis and overall plant appearance as compared with a control.
Plastic containers containing weeds which are 3 to 5 cm tall and rice seedlings at the 1.5 to 2.5 leaf stage are flooded with water. The water is maintained at 1.5 to 3 cm above the soil surface for the duration of the experiment. Test compounds are applied as aqueous/acetone mixtures 50/50 v/v directly into the flood water to provide the equivalent of about 0.0320 to 0.2500 kg/ha of active ingredient. The treated containers are placed on greenhouse benches and cared for in accordance with conventional greenhouse procedures. Three to four weeks after treatment, the test is terminated and each container is examined and herbicidal effect rated according to the rating system provided in Example 87. The compounds evaluated are identified in Example 87 and plant species used are identified in Example 89.

[13] = tested on: CYPSE (Cyperus serotinus); test: Flooded paddy, postemergence weed control; assay type: in vivo, Rottb.; conditions: postemergence weeds, rated 3-4 weeks after treatment
In short: as §4

[14] = tested on: MOOVA (Monochoria vaginalis); test: Flooded paddy, postemergence weed control; assay type: in vivo, Presl.; conditions: postemergence weeds, rated 3-4 weeks after treatment
In short: as §4

[15] = tested on: SAGPY (Sagittaria pygmaea); test: Flooded paddy, postemergence weed control; assay type: in vivo, L.; conditions: postemergence weeds, rated 3-4 weeks after treatment
In short: as §4

[16] = tested on: ORYSAT (Rice, Tebonnet); test: Flooded paddy, post-transplant and postemergence rice tolerance; assay type: in vivo, Oryza sativa, (L.) Tebonnet; conditions: post-transplant rice, rated 3-4 weeks after treatment
In short: as §4

## Cc1ccc(-c2nsc3ccc(-n4c(=O)cc(C(F)(F)F)n(C)c4=O)cc23)s1 [Compound 21, 1-methyl-3-[3-(5-methyl-2-thienyl)-1,2-benzisothiazol-5-yl]-6-(trifluoromethyl)uracil]
[1]; rate 0.0320 kg/ha
  Postemergence herbicidal rating, IPOHE: 9.0
[1]; rate 0.0620 kg/ha
  Postemergence herbicidal rating, IPOHE: 9.0
[1]; rate 0.1250 kg/ha
  Postemergence herbicidal rating, IPOHE: 9.0
[2]; rate 0.0320 kg/ha
  Postemergence herbicidal rating, SETVI: 2.0
[2]; rate 0.0620 kg/ha
  Postemergence herbicidal rating, SETVI: 7.0
[2]; rate 0.1250 kg/ha
  Postemergence herbicidal rating, SETVI: 9.0
[3]; rate 0.0320 kg/ha
  Postemergence herbicidal rating, TRZAWR: 4.0
[3]; rate 0.0620 kg/ha
  Postemergence herbicidal rating, TRZAWR: 4.5
[3]; rate 0.1250 kg/ha
  Postemergence herbicidal rating, TRZAWR: 4.5
[4]; Rate 0.0620 kg/ha
  ECHCG preemergence herbicidal rating: 0.0
[4]; Rate 0.1250 kg/ha
  ECHCG preemergence herbicidal rating: 5.0
[4]; Rate 0.2500 kg/ha
  ECHCG preemergence herbicidal rating: 6.5
[5]; Rate 0.0620 kg/ha
  SETVI preemergence herbicidal rating: 6.5
[5]; Rate 0.1250 kg/ha
  SETVI preemergence herbicidal rating: 9.0
[5]; Rate 0.2500 kg/ha
  SETVI preemergence herbicidal rating: 9.0
[6]; Rate 0.0620 kg/ha
  GLXMAW preemergence herbicidal rating: 0.0
[6]; Rate 0.1250 kg/ha
  GLXMAW preemergence herbicidal rating: 0.0
[6]; Rate 0.2500 kg/ha
  GLXMAW preemergence herbicidal rating: 2.0
[7]; Rate 0.0620 kg/ha
  ZEAMX preemergence herbicidal rating: 1.0
[7]; Rate 0.1250 kg/ha
  ZEAMX preemergence herbicidal rating: 3.5
[7]; Rate 0.2500 kg/ha
  ZEAMX preemergence herbicidal rating: 4.5
[8]; rate 0.0080 kg/ha
  herbicidal rating, ECHORC: 4.0
[8]; rate 0.0320 kg/ha
  herbicidal rating, ECHORC: 8.5
[8]; rate 0.1250 kg/ha
  herbicidal rating, ECHORC: 9.0
[9]; rate 0.0080 kg/ha
  herbicidal rating, CYPIR: 4.0
[9]; rate 0.0320 kg/ha
  herbicidal rating, CYPIR: 9.0
[9]; rate 0.1250 kg/ha
  herbicidal rating, CYPIR: 9.0
[10]; rate 0.0080 kg/ha
  herbicidal rating, MOOVA: 7.0
[10]; rate 0.0320 kg/ha
  herbicidal rating, MOOVA: 9.0
[10]; rate 0.1250 kg/ha
  herbicidal rating, MOOVA: 9.0
[11]; 0.0320 kg/ha into flood water
  herbicide rating (0-9) ECHORC: 6.0
[11]; 0.0620 kg/ha into flood water
  herbicide rating (0-9) ECHORC: 9.0
[11]; 0.1250 kg/ha into flood water
  herbicide rating (0-9) ECHORC: 9.0
[12]; 0.0320 kg/ha into flood water
  herbicide rating (0-9) CYPIR: 9.0
[12]; 0.0620 kg/ha into flood water
  herbicide rating (0-9) CYPIR: 9.0
[12]; 0.1250 kg/ha into flood water
  herbicide rating (0-9) CYPIR: 9.0
[13]; 0.0320 kg/ha into flood water
  herbicide rating (0-9) CYPSE: 0.0
[13]; 0.0620 kg/ha into flood water
  herbicide rating (0-9) CYPSE: 0.0
[13]; 0.1250 kg/ha into flood water
  herbicide rating (0-9) CYPSE: 0.0
[14]; 0.0320 kg/ha into flood water
  herbicide rating (0-9) MOOVA: 9.0
[14]; 0.0620 kg/ha into flood water
  herbicide rating (0-9) MOOVA: 9.0
[14]; 0.1250 kg/ha into flood water
  herbicide rating (0-9) MOOVA: 9.0
[15]; 0.0320 kg/ha into flood water
  herbicide rating (0-9) SAGPY: 0.0
[15]; 0.0620 kg/ha into flood water
  herbicide rating (0-9) SAGPY: 0.0
[15]; 0.1250 kg/ha into flood water
  herbicide rating (0-9) SAGPY: 0.0
[16]; 0.0320 kg/ha into flood water
  herbicide rating (0-9) ORYSAT (rice tolerance): 4.0
[16]; 0.0620 kg/ha into flood water
  herbicide rating (0-9) ORYSAT (rice tolerance): 7.0
[16]; 0.1250 kg/ha into flood water
  herbicide rating (0-9) ORYSAT (rice tolerance): 7.0

## COC(=O)COc1ccsc1-c1nsc2ccc(-n3c(=O)cc(C(F)(F)F)n(C)c3=O)cc12 [Compound 22, Methyl [(2-[5-[3,6-dihydro-3-methyl-2,6-dioxo-4-(trifluoromethyl)-1(2H)-pyrimidinyl]-1,2-benzisothiazol-3-yl]-3-thienyl]oxy]acetate]
[1]; rate 0.0320 kg/ha
  Postemergence herbicidal rating, IPOHE: 4.0
[1]; rate 0.0620 kg/ha
  Postemergence herbicidal rating, IPOHE: 4.0
[1]; rate 0.1250 kg/ha
  Postemergence herbicidal rating, IPOHE: 6.0
[2]; rate 0.0320 kg/ha
  Postemergence herbicidal rating, SETVI: 3.0
[2]; rate 0.0620 kg/ha
  Postemergence herbicidal rating, SETVI: 2.0
[2]; rate 0.1250 kg/ha
  Postemergence herbicidal rating, SETVI: 9.0
[3]; rate 0.0320 kg/ha
  Postemergence herbicidal rating, TRZAWR: 2.5
[3]; rate 0.0620 kg/ha
  Postemergence herbicidal rating, TRZAWR: 3.5
[3]; rate 0.1250 kg/ha
  Postemergence herbicidal rating, TRZAWR: 4.5
[4]; Rate 0.0620 kg/ha
  ECHCG preemergence herbicidal rating: 0.0
[4]; Rate 0.1250 kg/ha
  ECHCG preemergence herbicidal rating: 0.0
[4]; Rate 0.2500 kg/ha
  ECHCG preemergence herbicidal rating: 1.0
[5]; Rate 0.0620 kg/ha
  SETVI preemergence herbicidal rating: 0.0
[5]; Rate 0.1250 kg/ha
  SETVI preemergence herbicidal rating: 1.0
[5]; Rate 0.2500 kg/ha
  SETVI preemergence herbicidal rating: 3.0
[6]; Rate 0.0620 kg/ha
  GLXMAW preemergence herbicidal rating: 0.0
[6]; Rate 0.1250 kg/ha
  GLXMAW preemergence herbicidal rating: 0.0
[6]; Rate 0.2500 kg/ha
  GLXMAW preemergence herbicidal rating: 0.0
[7]; Rate 0.0620 kg/ha
  ZEAMX preemergence herbicidal rating: 0.0
[7]; Rate 0.1250 kg/ha
  ZEAMX preemergence herbicidal rating: 0.0
[7]; Rate 0.2500 kg/ha
  ZEAMX preemergence herbicidal rating: 1.0
[8]; rate 0.0080 kg/ha
  herbicidal rating, ECHORC: 0.0
[8]; rate 0.0320 kg/ha
  herbicidal rating, ECHORC: 0.0
[8]; rate 0.1250 kg/ha
  herbicidal rating, ECHORC: 5.0
[9]; rate 0.0080 kg/ha
  herbicidal rating, CYPIR: 0.0
[9]; rate 0.0320 kg/ha
  herbicidal rating, CYPIR: 2.5
[9]; rate 0.1250 kg/ha
  herbicidal rating, CYPIR: 3.0
[10]; rate 0.0080 kg/ha
  herbicidal rating, MOOVA: 0.0
[10]; rate 0.0320 kg/ha
  herbicidal rating, MOOVA: 4.5
[10]; rate 0.1250 kg/ha
  herbicidal rating, MOOVA: 4.5
[11]; 0.0320 kg/ha into flood water
  herbicide rating (0-9) ECHORC: 0.0
[11]; 0.0620 kg/ha into flood water
  herbicide rating (0-9) ECHORC: 0.0
[11]; 0.1250 kg/ha into flood water
  herbicide rating (0-9) ECHORC: 0.0
[12]; 0.0320 kg/ha into flood water
  herbicide rating (0-9) CYPIR: 0.0
[12]; 0.0620 kg/ha into flood water
  herbicide rating (0-9) CYPIR: 0.0
[12]; 0.1250 kg/ha into flood water
  herbicide rating (0-9) CYPIR: 0.0
[13]; 0.0320 kg/ha into flood water
  herbicide rating (0-9) CYPSE: 0.0
[13]; 0.0620 kg/ha into flood water
  herbicide rating (0-9) CYPSE: 0.0
[13]; 0.1250 kg/ha into flood water
  herbicide rating (0-9) CYPSE: 0.0
[14]; 0.0320 kg/ha into flood water
  herbicide rating (0-9) MOOVA: 0.0
[14]; 0.0620 kg/ha into flood water
  herbicide rating (0-9) MOOVA: 0.0
[14]; 0.1250 kg/ha into flood water
  herbicide rating (0-9) MOOVA: 0.0
[15]; 0.0320 kg/ha into flood water
  herbicide rating (0-9) SAGPY: 0.0
[15]; 0.0620 kg/ha into flood water
  herbicide rating (0-9) SAGPY: 0.0
[15]; 0.1250 kg/ha into flood water
  herbicide rating (0-9) SAGPY: 0.0
[16]; 0.0320 kg/ha into flood water
  herbicide rating (0-9) ORYSAT (rice tolerance): 0.0
[16]; 0.0620 kg/ha into flood water
  herbicide rating (0-9) ORYSAT (rice tolerance): 0.0
[16]; 0.1250 kg/ha into flood water
  herbicide rating (0-9) ORYSAT (rice tolerance): 0.0
